According to US20120129712A1, “ANTIBODIES DIRECTED TO TRA ANTIGENS, AND METHODS OF PRODUCTION, SCREENING AND ANALYSIS OF SAID ANTIBODIES, AS WELL AS METHODS OF ANALYSIS OF STEM CELLS AND CANCER CELL” (GLYKOS FINLAND OY, priority 2009, published 2012):
Entries after “also recorded” stand apart in the source; their conditions may differ.

What was measured:
Tra-1-60 antibody = test: Glycan microarray analysis (Consortium for Functional Glycomics printed array v3.2), binding of Tra-1-60
Method: (§1) Tra-1-81 and Tra-1-60 antibodies were from Chemicon (MAB4381 and MAB4361, respectively).
(§2) Glycan microarray analysis was carried out by the Consortium for Functional Glycomics. Glycan microarrays were printed as described (Blixt 2004). Version 3.2 of the human printed glycan array was used for analysis. Binding analysis was performed at […] of antibody. Data are reported as average RFU of 6 replicates after removal of highest and lowest values.

Tra-1-81 antibody = test: Glycan microarray analysis (Consortium for Functional Glycomics printed array v3.2), binding of Tra-1-81; parameters: RFU (glycan binding signal of Tra-1-81): dose or concentration left out as unconfirmed; settings: for RFU (glycan binding signal of Tra-1-81): Tra-1-81 (Chemicon MAB4381), average RFU of 6 replicates after removal of highest and lowest values; for binding of Tra-1-81 to the glycan, in words: glycan microarray
Method: as §1, §2

Row | Substance | binding of Tra-1-60 to the glycan, in words (Tra-1-60 antibody) | RFU (glycan binding signal of Tra-1-81) (Tra-1-81 antibody) | binding of Tra-1-81 to the glycan, in words (Tra-1-81 antibody; listed as Galβ1-3GlcNAcβ1-3Galβ1-4GlcNAc) | binding of Tra-1-81 to the glycan, in words (Tra-1-81 antibody)
1 | Galb1-3GlcNAcb1-3Galb1-4GlcNAcb-Sp0 [Chart # 130] | exclusively bound | 721 RFU | binding; also recorded: specifically bound | –
2 | Galb1-3GlcNAcb1-3Galb1-4Glcb-Sp10 [Chart # 131] | very weak or non-essential binding | – | – | weakly bound
3 | Galb1-3GlcNacb1-3(Galb1-3GlcNacb1-3Galb1-4GlcNacb1-6)Galb1-4Glcb-Sp0 [Chart # 379] | – | 147 RFU | – | specifically bound
4 | Lewis a | – | – | – | weakly bound
